Experimental data published in ChEMBL document CHEMBL3739282, “An efficient green synthesis of 2-arylbenzothiazole analogues as potent antibacterial and anticancer agents” (Bioorg Med Chem Lett, 2016).
Values after ≈ are worked out from the molar mass of the structure shown.

Assays:
MCF7 = assay: Cytotoxicity against human MCF7 cells assessed as cell death after 24 hrs by MTT assay; format: functional, cell-based; conditions: MCF7, 24 h
HeLa = assay: Cytotoxicity against human HeLa cells assessed as cell death after 24 hrs by MTT assay; format: functional, cell-based
Staphylococcus aureus = assay: Antibacterial activity against Staphylococcus aureus assessed as growth inhibition incubated for 24 hrs at 37 degC by agar well diffusion method; format: functional
Escherichia coli = assay: Antibacterial activity against Escherichia coli assessed as growth inhibition incubated for 24 hrs at 37 degC by agar well diffusion method; format: functional
Bacillus subtilis = assay: Antibacterial activity against Bacillus subtilis assessed as growth inhibition incubated for 24 hrs at 37 degC by agar well diffusion method; format: functional
Salmonella = assay: Antibacterial activity against Salmonella assessed as growth inhibition incubated for 24 hrs at 37 degC by agar well diffusion method; format: functional
[1] = Stability of the compound in GSH at 10^-5 M after 48 hrs by UV-vis spectroscopic analysis; format: physicochemical; conditions: 10 µM

Row | Compound | IC50 (MCF7) [µM] | IC50 (HeLa) [µM] | MIC (Staphylococcus aureus) [µg/mL] | MIC (Escherichia coli) [µg/mL] | MIC (Bacillus subtilis) [µg/mL] | MIC (Salmonella) [µg/mL] | Stability [1]
1 | c1csc(-c2nc3ccccc3s2)c1 | 22.6 | 28.5 | 12.5 (≈ 57.5 µM) | 12.5 (≈ 57.5 µM) | 25 (≈ 115 µM) | 25 (≈ 115 µM) | 
2 | NC[C@H]1O[C@H](O[C@H]2[C@H](O)[C@@H](O[C@H]3O[C@H](CO)[C@@H](O)[C@H](N)[C@H]3O)[C@H](N)C[C@@H]2N)[C@H](N)C[C@@H]1O [TOBRAMYCIN] |  |  | 1.5 (≈ 3.21 µM) | 3 (≈ 6.42 µM) | 3 (≈ 6.42 µM) | 3 (≈ 6.42 µM) | 
3 | c1ccc(-c2nc3ccccc3s2)nc1 | 20.4 | 27.5 | 6.25 (≈ 29.4 µM) | 12.5 (≈ 58.9 µM) | 12.5 (≈ 58.9 µM) | 12.5 (≈ 58.9 µM) | Stable
4 | c1coc(-c2nc3ccccc3s2)c1 | 17.6 | 22.6 | 50 (≈ 248 µM) | 50 (≈ 248 µM) | 50 (≈ 248 µM) | 50 (≈ 248 µM) | 
5 | Brc1cccc(-c2nc3ccccc3s2)c1 | 10.5 | 17.4 | 12.5 (≈ 43.1 µM) | 12.5 (≈ 43.1 µM) | 12.5 (≈ 43.1 µM) | 12.5 (≈ 43.1 µM) | 
6 | Oc1ccccc1-c1nc2ccccc2s1 | 26.8 | 30.6 | 100 (≈ 440 µM) | 100 (≈ 440 µM) | 100 (≈ 440 µM) | 100 (≈ 440 µM) | 
7 | Cc1ccccc1-c1nc2ccccc2s1 | 20.4 | 28.2 | 100 (≈ 444 µM) | 100 (≈ 444 µM) | 100 (≈ 444 µM) | 100 (≈ 444 µM) | 
8 | GENTAMICIN |  |  | 1 | 2 | 2 | 2 | 
9 | O=C(O)c1cn(C2CC2)c2cc(N3CCNCC3)c(F)cc2c1=O [CIPROFLOXACIN] |  |  |  |  | 25 (≈ 75.4 µM) | 10 (≈ 30.2 µM) | 
10 | c1ccc2[nH]c(-c3nc4ccccc4s3)cc2c1 | 9.26 | 15.2 | 3.12 (≈ 12.5 µM) | 3.12 (≈ 12.5 µM) | 3.12 (≈ 12.5 µM) | 3.12 (≈ 12.5 µM) | 
11 | Fc1ccc(-c2nc3ccccc3s2)cc1 | 9.85 | 16.6 | 6.25 (≈ 27.3 µM) | 6.25 (≈ 27.3 µM) | 12.5 (≈ 54.5 µM) | 12.5 (≈ 54.5 µM) | 
12 | Clc1ccccc1-c1nc2ccccc2s1 | 10.7 | 18.2 | 12.5 (≈ 50.9 µM) | 12.5 (≈ 50.9 µM) | 12.5 (≈ 50.9 µM) | 12.5 (≈ 50.9 µM) | 
13 | c1ccc2cc(-c3nc4ccccc4s3)ccc2c1 | 42.3 | 48.2 | > 200 | > 200 | > 200 | > 200 | 
14 | c1ccc(-c2nc3ccccc3s2)cc1 [2-PHENYLBENZO[D]THIAZOLE] | 18.5 | 22.1 | 50 (≈ 237 µM) | 50 (≈ 237 µM) | 25 (≈ 118 µM) | 25 (≈ 118 µM) | Stable
15 | COc1cccc(-c2nc3ccccc3s2)c1O | 28.6 | 32.6 | > 200 | > 200 | > 200 | > 200 | 
